The supplement of paper PMC10307832

Columns and labels:
Assay in all cases: relative viability (nuclei count vs DMSO), 5 days (fraction); higher = more cells survive
RERF-LC-KJ = tested on: RERF-LC-KJ
Summary of the method: (§1)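 Medians of duplicate plates are given as relative viability. That measure is the nuclei count in treated wells divided by the count in vehicle wells. Counts were taken on 4× images of lung cancer cell lines in 1536-well plates, 5 days after pin-tool dosing the day after seeding with one drug alone or a fixed anchor-drug dose plus five library-drug doses (not always all listed) in √10 steps.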

NCI-H520 = tested on: NCI-H520
Summary of the method: as §1

LK-2 = tested on: LK-2
Summary of the method: as §1

SW 1573 = tested on: SW 1573
Summary of the method: as §1

NCI-H1650 = tested on: NCI-H1650
Summary of the method: as §1

HCC-15 = tested on: HCC-15
Summary of the method: as §1

NCI-H1563 = tested on: NCI-H1563
Summary of the method: as §1

NCI-H661 = tested on: NCI-H661
Summary of the method: as §1

HCC-827 = tested on: HCC-827
Summary of the method: as §1

NCI-H2405 = tested on: NCI-H2405
Summary of the method: as §1

PC-14 = tested on: PC-14
Summary of the method: as §1

CC1(C)CCC(c2ccc(Cl)cc2)=C(CN2CCN(c3ccc(C(=O)NS(=O)(=O)c4ccc(N[C@H](CCN5CCOCC5)CSc5ccccc5)c(S(=O)(=O)C(F)(F)F)c4)cc3)CC2)C1 [Navitoclax] + CS(=O)(=O)N1CCN(Cc2cc3nc(-c4cccc5[nH]ncc45)nc(N4CCOCC4)c3s2)CC1 [Pictilisib] (partner 1 µM)
relative viability (RERF-LC-KJ; first compound 0.005 µM): 0.446
relative viability (RERF-LC-KJ; first compound 0.01581 µM): 0.55
relative viability (RERF-LC-KJ; first compound 0.05 µM): 0.589
relative viability (RERF-LC-KJ; first compound 0.1581 µM): 0.476
relative viability (RERF-LC-KJ; first compound 0.5 µM): 0.568
relative viability (NCI-H520; first compound 0.005 µM): 0.305
relative viability (NCI-H520; first compound 0.01581 µM): 0.374
relative viability (NCI-H520; first compound 0.05 µM): 0.3
relative viability (NCI-H520; first compound 0.1581 µM): 0.322
relative viability (NCI-H520; first compound 0.5 µM): 0.281
relative viability (LK-2; first compound 0.005 µM): 0.612
relative viability (LK-2; first compound 0.01581 µM): 0.559
relative viability (LK-2; first compound 0.05 µM): 0.536
relative viability (LK-2; first compound 0.1581 µM): 0.657
relative viability (LK-2; first compound 0.5 µM): 0.511
relative viability (SW 1573; first compound 0.005 µM): 0.466
relative viability (SW 1573; first compound 0.01581 µM): 0.54
relative viability (SW 1573; first compound 0.05 µM): 0.464
relative viability (SW 1573; first compound 0.1581 µM): 0.389
relative viability (SW 1573; first compound 0.5 µM): 0.503
relative viability (NCI-H1650; first compound 0.005 µM): 0.541
relative viability (NCI-H1650; first compound 0.01581 µM): 0.737
relative viability (NCI-H1650; first compound 0.05 µM): 0.656
relative viability (NCI-H1650; first compound 0.1581 µM): 0.623
relative viability (NCI-H1650; first compound 0.5 µM): 0.394
relative viability (HCC-15; first compound 0.005 µM): 0.733
relative viability (HCC-15; first compound 0.01581 µM): 0.769
relative viability (HCC-15; first compound 0.05 µM): 0.614
relative viability (HCC-15; first compound 0.1581 µM): 0.726
relative viability (HCC-15; first compound 0.5 µM): 0.667
relative viability (NCI-H1563; first compound 0.005 µM): 0.603
relative viability (NCI-H1563; first compound 0.01581 µM): 0.667
relative viability (NCI-H1563; first compound 0.05 µM): 0.577
relative viability (NCI-H1563; first compound 0.1581 µM): 0.583
relative viability (NCI-H1563; first compound 0.5 µM): 0.693
relative viability (NCI-H661; first compound 0.005 µM): 0.48
relative viability (NCI-H661; first compound 0.01581 µM): 0.443
relative viability (NCI-H661; first compound 0.05 µM): 0.379
relative viability (NCI-H661; first compound 0.1581 µM): 0.406
relative viability (NCI-H661; first compound 0.5 µM): 0.465
relative viability (HCC-827; first compound 0.005 µM): 1.12
relative viability (HCC-827; first compound 0.01581 µM): 1
relative viability (HCC-827; first compound 0.05 µM): 0.933
relative viability (HCC-827; first compound 0.1581 µM): 0.78
relative viability (HCC-827; first compound 0.5 µM): 0.975
relative viability (NCI-H2405; first compound 0.005 µM): 0.409
relative viability (NCI-H2405; first compound 0.01581 µM): 0.754
relative viability (NCI-H2405; first compound 0.05 µM): 0.434
relative viability (NCI-H2405; first compound 0.1581 µM): 0.451
relative viability (NCI-H2405; first compound 0.5 µM): 0.41
relative viability (PC-14; first compound 0.005 µM): 0.648
relative viability (PC-14; first compound 0.01581 µM): 0.956
relative viability (PC-14; first compound 0.05 µM): 0.746
relative viability (PC-14; first compound 0.1581 µM): 0.748
relative viability (PC-14; first compound 0.5 µM): 0.68
